Data on 21 molecules can be found in patent US20240351997A1, “NOVEL PARP7 INHIBITOR AND USE THEREOF” (SHANGHAI QILU PHARMACEUTICAL RESEARCH AND DEVELOPMENT …, priority 2021, published 2024).

This assay deals with PARP7 (Homo sapiens (Human), UniProt Q7Z3E1). Description: In vitro enzymology experiment of PARP7 (enzymatic inhibition). The format is biochemical. On the procedure: II. In Vitro Enzymology Experiment of PARP2, 3, 5A, 5B, 7, 12, and 15
1. Preparation of 384-well histone-coated plate: 25 μL of histone solution was added to each well, and the plate was incubated overnight at 4° C.
2. Preparation of PBST buffer, blocking buffer, and assay buffer
3. The 384-well histone-coated plate was washed three times with PBST buffer. The plate was blocked by 50 μL of blocking buffer for 1 hour at room temperature. The plate was then washed three times with PBST buffer.
2000× compound was prepared in a 96-well source plate. 50 nL of the compound was transferred from the source plate to a 96-well intermediate plate, and 39.95 μL of assay buffer was added to each well. The plate was shaken well and centrifuged at 1000 rpm for 1 minute.
5 μL of compound DMSO solution was transferred to each well.
An enzyme mixture was incubated at 25° C. for 10 minutes.
10 μL of the enzyme mixture was added, and incubated with the compound at room temperature for 10 minutes.
10 μL of assay buffer was added to the negative control well of the assay plate.
The plate was then washed three times with PBST buffer.
25 μL of Stre-HRP was added.
The plate was incubated at room temperature for 1 hour and washed three times with PBS buffer.
25 μL of QuantaRed Enhancer mix was added. The plate was incubated for 10 minutes.
2.5 μL of QuantaRed Stop Solution was added to terminate the peroxidase reaction, and the plate was shaken for 10 to 30 seconds.
7. Paradigm was used to read the plate immediately to detect the readings at Ex550/Em620.
Using equation (1) to fit the data in Excel to obtain inhibition values
Using equation (2) to fit the data in XL-Fit to obtain IC50 values
Y is the percentage of inhibition, and X is the compound concentration.

SMILES strings stand for the structures.

Chain of PARP7 (Q7Z3E1 whole entry): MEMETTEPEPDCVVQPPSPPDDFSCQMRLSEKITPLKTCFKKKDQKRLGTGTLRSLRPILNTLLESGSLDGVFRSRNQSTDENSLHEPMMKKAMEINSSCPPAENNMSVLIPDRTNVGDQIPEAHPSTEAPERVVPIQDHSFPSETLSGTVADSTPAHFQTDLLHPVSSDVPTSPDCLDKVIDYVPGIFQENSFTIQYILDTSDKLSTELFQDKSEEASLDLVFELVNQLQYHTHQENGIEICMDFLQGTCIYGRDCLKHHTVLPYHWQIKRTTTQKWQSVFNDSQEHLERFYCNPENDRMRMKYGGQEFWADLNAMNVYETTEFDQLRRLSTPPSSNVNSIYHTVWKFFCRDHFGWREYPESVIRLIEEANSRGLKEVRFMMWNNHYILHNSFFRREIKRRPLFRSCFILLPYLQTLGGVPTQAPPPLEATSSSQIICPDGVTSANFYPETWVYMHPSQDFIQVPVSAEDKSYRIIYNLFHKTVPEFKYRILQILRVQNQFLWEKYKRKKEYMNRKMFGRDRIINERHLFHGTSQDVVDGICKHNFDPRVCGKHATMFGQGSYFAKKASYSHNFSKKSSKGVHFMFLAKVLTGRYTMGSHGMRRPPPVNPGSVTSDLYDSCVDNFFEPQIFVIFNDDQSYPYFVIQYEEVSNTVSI

In the case of `O=C(CCOCCn1c(=O)ccc2c(=O)[nH]ncc21)N1CCN(c2ncc(C(F)(F)F)cn2)CC1` [Example 22, 1-(2-(3-Oxo-3-(4-(5-(trifluoromethyl)pyrimidin-2-yl)piperazin-1-yl)propoxy)ethyl)pyrido[2,3-d]pyridazine-2,5(1H,6H)-dione], half-maximal inhibition (IC50) required 3.6 nM.

Regarding `O=C(CCO[C@H]1CCC[C@@H]1c1c[nH]c(=O)c(C(F)(F)F)c1)N1CCN(c2ncc(C(F)(F)F)cn2)CC1` [Example 39, 5-((1R,2S)-2-(3-Oxo-3-(4-(5-(trifluoromethyl)pyrimidin-2-yl)piperazin-1-yl)propoxy)cyclopentyl)-3-(trifluoromethyl)pyridin-2(1H)-one], half-maximal inhibition (IC50) required 1.5 nM.

As to `CC[C@@H]1CN(c2ncc(C(F)(F)F)cn2)CCN1C(=O)OCCc1c[nH]c(=O)c(C(F)(F)F)c1` [Example 122, 2-(6-Oxo-5-(trifluoromethyl)-1,6-dihydropyridin-3-yl)ethyl (R)-2-ethyl-4-(5-(trifluoromethyl)pyrimidin-2-yl)piperazine-1-carboxylate], the IC50 (usually the point on the concentration scale where inhibition reaches its midpoint) came out at 0.69 nM.

Molecule `CC(C)(O)c1cnc(N2CCN(C(=O)OCCc3c[nH]c(=O)c(C(F)(F)F)c3)CC2)nc1` [Example 114, 2-(6-Oxo-5-(trifluoromethyl)-1,6-dihydropyridin-3-yl)ethyl 4-(5-(2-hydroxypropan-2-yl)pyrimidin-2-yl)piperazine-1-carboxylate] yielded an IC50 of 0.53 nM.

`C[C@@H](Cc1c[nH]c(=O)c(C(F)(F)F)c1)OC(=O)NC1CCN(c2ncc(C(F)(F)F)cn2)CC1` [Example 55, (S)-1-(6-Oxo-5-(trifluoromethyl)-1,6-dihydropyridin-3-yl)propan-2-yl (1-(5-(trifluoromethyl)pyrimidin-2-yl)piperidin-4-yl)carbamate] yielded an IC50 of 3.42 nM.

For the molecule `CC(OC[C@@H]1CCCN1c1c[nH]c(=O)c(C(F)(F)F)c1)C(=O)N1CCN(c2ncc(C(F)(F)F)cn2)CC1` (stereo partly drawn) [Example 83], inhibition was half-maximal at 1.38 nM (IC50).

Molecule `CC(COC(=O)N1CCN(c2ncc(C(F)(F)F)cn2)CC1)c1c[nH]c(=O)c(C(F)(F)F)c1` (stereo not drawn) [Example 25, 2-(6-Oxo-5-(trifluoromethyl)-1,6-dihydropyridin-3-yl)propyl 4-(5-(trifluoromethyl)pyrimidin-2-yl)piperazine-1-carboxylate] came in with an IC50 of 0.8 nM.

On to `C[C@@H](Cc1c[nH]c(=O)c(C(F)(F)F)c1)OC(=O)N1CCN(c2ncc(C(C)(C)O)cn2)CC1` [Example 100, (S)-1-(6-Oxo-5-(trifluoromethyl)-1,6-dihydropyridin-3-yl)propan-2-yl 4-(5-(2-hydroxypropan-2-yl)pyrimidin-2-yl)piperazine-1-carboxylate], for which the IC50 stood at 0.61 nM.

For the molecule `CC(Cc1c[nH]c(=O)c(C(F)(F)F)c1)OC(=O)N1CCN(c2ncccc2C#N)CC1` (stereo not drawn) [Example 46, 1-(6-Oxo-5-(trifluoromethyl)-1,6-dihydropyridin-3-yl)propan-2-yl 4-(3-cyanopyridin-2-yl)piperazine-1-carboxylate], 1.94 nM corresponded to half-maximal inhibition (IC50).

On to `C[C@@H](Cc1c[nH]c(=O)c(C(F)(F)F)c1)OC(=O)N1CC(Nc2ncc(C(F)(F)F)cn2)C1` [Example 54, (S)-1-(6-Oxo-5-(trifluoromethyl)-1,6-dihydropyridin-3-yl)propan-2-yl 3-((5-(trifluoromethyl)pyrimidin-2-yl)amino) azetidine-1-carboxylate], for which the midpoint of inhibition, the IC50, lay at 6.23 nM.

The molecule `C[C@@H](Cc1c[nH]c(=O)c(C(F)(F)F)c1)OC(=O)N1CCN(c2ccc(C(F)(F)F)cn2)CC1` [Example 86, (S)-1-(6-Oxo-5-(trifluoromethyl)-1,6-dihydropyridin-3-yl)propan-2-yl 4-(5-(trifluoromethyl)pyridin-2-yl)piperazine-1-carboxylate] registered an IC50 of 0.6 nM.

For `O=C(OCCc1c[nH]c(=O)c(C(F)(F)F)c1)N1CCN(c2ncc(C(F)(F)F)cn2)[C@H](CO)C1` [Example 111, 2-(6-Oxo-5-(trifluoromethyl)-1,6-dihydropyridin-3-yl)ethyl (S)-3-(hydroxymethyl)-4-(5-(trifluoromethyl)pyrimidin-2-yl)piperazine-1-carboxylate], the IC50 was 0.61 nM.

Turning to `C[C@@H](Cc1c[nH]c(=O)c(C(F)(F)F)c1)OC(=O)N1CCN(c2ncc(C(F)(F)F)cn2)C[C@H]1CO` [Example 79, (S)-1-(6-Oxo-5-(trifluoromethyl)-1,6-dihydropyridin-3-yl)propan-2-yl (S)-2-(hydroxymethyl)-4-(5-(trifluoromethyl)pyrimidin-2-yl)piperazine-1-carboxylate], the IC50 amounted to 0.68 nM.

In turn, `C[C@@H](Cc1c[nH]c(=O)c(C(F)(F)F)c1)OC(=O)N1CC[C@@H](Nc2ncc(C(F)(F)F)cn2)C1` [Example 53, (S)-1-(6-Oxo-5-(trifluoromethyl)-1,6-dihydropyridin-3-yl)propan-2-yl (R)-3-((5-(trifluoromethyl)pyrimidin-2-yl)amino) pyrrolidine-1-carboxylate] yielded an IC50 of 2.3 nM.

In turn, `O=C(O[C@@H](CO)Cc1c[nH]c(=O)c(C(F)(F)F)c1)N1CCN(c2ncc(C(F)(F)F)cn2)CC1` [Example 117, (R)-1-Hydroxy-3-(6-oxo-5-(trifluoromethyl)-1,6-dihydropyridin-3-yl)propan-2-yl 4-(5-(trifluoromethyl)pyrimidin-2-yl)piperazine-1-carboxylate] gave an IC50 of 0.62 nM.

In turn, `C[C@@H](Cc1c[nH]c(=O)c(C(F)(F)F)c1)OC(=O)N1CCC(c2ccc(C(F)(F)F)cn2)CC1` [Example 99, (S)-1-(6-Oxo-5-(trifluoromethyl)-1,6-dihydropyridin-3-yl)propan-2-yl 4-(5-(trifluoromethyl)pyridin-2-yl)piperidine-1-carboxylate] yielded an IC50 of 0.56 nM.

For the molecule `O=C(OCC1CCCC1c1c[nH]c(=O)c(C(F)(F)F)c1)N1CCN(c2ncc(C(F)(F)F)cn2)CC1` (stereo not drawn) [Example 59, (2-(6-Oxo-5-(trifluoromethyl)-1,6-dihydropyridin-3-yl)cyclopentyl)methyl 4-(5-(trifluoromethyl)pyrimidin-2-yl)piperazine-1-carboxylate], the midpoint of inhibition, the IC50, lay at 1.06 nM.

As for `C[C@@H](Cc1c[nH]c(=O)c(C(F)(F)F)c1)OC(=O)N1CCN(c2ncc(C(F)(F)F)s2)CC1` [Example 49, (S)-1-(6-Oxo-5-(trifluoromethyl)-1,6-dihydropyridin-3-yl)propan-2-yl 4-(5-(trifluoromethyl)thiazol-2-yl)piperazine-1-carboxylate], the IC50 is 0.76 nM.

Turning to `N#Cc1ccc(N2CCN(C(=O)OCCc3c[nH]c(=O)c(C(F)(F)F)c3)CC2)nc1` [Example 144, 2-(6-Oxo-5-(trifluoromethyl)-1,6-dihydropyridin-3-yl)ethyl 4-(5-cyanopyridin-2-yl)piperazine-1-carboxylate], inhibition was half-maximal at 1.5 nM (IC50).

As for `CC[C@@H]1CN(C(=O)OCCc2c[nH]c(=O)c(C(F)(F)F)c2)CCN1c1ncc(C(F)(F)F)cn1` [Example 123, 2-(6-Oxo-5-(trifluoromethyl)-1,6-dihydropyridin-3-yl)ethyl (R)-3-ethyl-4-(5-(trifluoromethyl)pyrimidin-2-yl)piperazine-1-carboxylate], 0.87 nM corresponded to half-maximal inhibition (IC50).

Regarding `C[C@@H]1CN(C(=O)O[C@@H](C)Cc2c[nH]c(=O)c(C(F)(F)F)c2)C[C@H](C)N1c1ncc(C(F)(F)F)cn1` [Example 162, (S)-1-(6-Oxo-5-(trifluoromethyl)-1,6-dihydropyridin-3-yl)propan-2-yl (3S,5R)-3,5-dimethyl-4-(5-(trifluoromethyl)pyrimidin-2-yl)piperazine-1-carboxylate], the IC50 was determined as 1.2 nM.
